pEC50: −log10 of the molar value.
What was measured:
[1] = tested on: sodium or calcium channels (SLC8A1, CACNA1C, SCN5A); assay: RT-qPCR of cardiac ion channel genes in hiPSC-CMs: sodium or calcium channels; assay type: cell-based, human; conditions: GAPDH housekeeping
COVID-19 = tested on: COVID-19; parameters: method as in Lenze et al., 2020; conditions: hospitalized patients with COVID-19, double-blind RCT; ref Lenze et al., 2020; cited from earlier work
ICaL = tested on: ICaL; parameters: method as in Chen et al., 2020; Guo et al., 2021; conditions: as a sigma-1 receptor agonist; ref Chen et al., 2020; Guo et al., 2021; cited from earlier work
Ito = tested on: Ito; parameters: method as in Chen et al., 2020; Guo et al., 2021; conditions: as a sigma-1 receptor agonist; ref Chen et al., 2020; Guo et al., 2021; cited from earlier work
KCNQ1 = assay: RT-qPCR of KCNQ1 in hiPSC-CMs; assay type: cell-based, human
hiPSC-CMs = assay: Action potential recording in hiPSC-CMs, whole-cell patch-clamp (current-clamp); assay type: cell-based, human; conditions: for decrease of APD vs CTL / APD (APD90): 24-h incubation; for APD (APD90): CTL 364.4 ms, p < 0.0001, n = 14; for early after-depolarizations (EADs) during repolarization: transient effect, recorded within 1 hour
Hsp90 = assay: Western blot of chaperone Hsp90 after 24 h incubation; assay type: cell-based, human; conditions: LPV 1-20 μM
SARS-CoV-2 = tested on: SARS-CoV-2; parameters: method as in Lou et al., 2021; conditions: read-out: 50% effective inhibition concentration (EC50) against SARS-CoV-2; ref Lou et al., 2021; cited from earlier work
Hsp70 = assay: Western blot of chaperone Hsp70 after 24 h incubation; assay type: cell-based, human; conditions: LPV 1-20 μM, especially at 10 μM
hERG potassium channel = tested on: hERG potassium channel; parameters: method as in Szendrey et al., 2021; conditions: ref Szendrey et al., 2021; cited from earlier work
hERG protein = tested on: hERG protein; parameters: method as in Borsini et al., 2012; conditions: ref Borsini et al., 2012; cited from earlier work
hERG = tested on: hERG; parameters: method as in Szendrey et al., 2021; conditions: when acting alone; ref Szendrey et al., 2021; cited from earlier work
[2] = FLV-treated hiPSC-CMs, Figure 6H
[3] = LPV-treated hiPSC-CMs, Figure 6H

COCCCC/C(=N\OCCN)c1ccc(C(F)(F)F)cc1 [FLV, fluvoxamine]
mRNA expression of sodium or calcium channels ([1]; 3 μM FLV): did not significantly alter | clinical deterioration rate (COVID-19): lower clinical deterioration rate | effect on ICaL (ICaL): decreases | effect on Ito (Ito): enhances | level of KCNQ1 nucleic acid (KCNQ1; chronic FLV administration): increased | decrease of APD vs CTL (hiPSC-CMs; 3 μM FLV): 183.6 ms | APD (APD90) (hiPSC-CMs; 3 μM FLV): 180.8 ms | early after-depolarizations (EADs) during repolarization (hiPSC-CMs; 3 μM FLV): induce the occurrence of EADs | APD10 (hiPSC-CMs; [2]): 52.3 ± 8.8 ms | Amp (amplitude) (hiPSC-CMs; [2]): 99.2±9.7 mV | MDP (maximum diastolic potential) (hiPSC-CMs; [2]): -51.8±8.3 mV

Cc1cccc(C)c1OCC(=O)N[C@@H](Cc1ccccc1)[C@@H](O)C[C@H](Cc1ccccc1)NC(=O)[C@H](C(C)C)N1CCCNC1=O [LPV, lopinavir]
mRNA expression of sodium or calcium channels ([1]; 10 μM LPV): did not significantly alter | expression levels of Hsp90 (Hsp90): significant reduction | pEC50 (SARS-CoV-2): 5.76 | level of KCNQ1 nucleic acid (KCNQ1; chronic LPV administration): increased | expression of Hsp70 (Hsp70): significantly increased | decrease of APD vs CTL (hiPSC-CMs; 10 μM LPV): 191.8 ms | APD (APD90) (hiPSC-CMs; 10 μM LPV): 172.6 ms | early after-depolarizations (EADs) during repolarization (hiPSC-CMs; 10 μM LPV): induce the occurrence of EADs | APD10 (hiPSC-CMs; [3]): 48.9 ± 10.3 ms | APD30 (hiPSC-CMs; [3]): 103.6 ± 11.2 ms | Amp (amplitude) (hiPSC-CMs; [3]): 103.8±6.1 mV | MDP (maximum diastolic potential) (hiPSC-CMs; [3]): -59.1±3.6 mV

CCN(CC)CCCC(C)Nc1ccnc2cc(Cl)ccc12 (stereo not shown) [chloroquine]
effect on the hERG current (IhERG) (hERG potassium channel): acutely and severely inhibited | trafficking of the hERG protein (hERG protein): prompted the trafficking

CCN(CCO)CCCC(C)Nc1ccnc2cc(Cl)ccc12 (stereo not shown) [hydroxychloroquine]
effect on the hERG current (IhERG) (hERG potassium channel): acutely and severely inhibited

CCC(CC)COC(=O)[C@H](C)N[P@](=O)(OC[C@H]1O[C@@](C#N)(c2ccc3c(N)ncnn23)[C@H](O)[C@@H]1O)Oc1ccccc1 [remdesivir]
effect on the hERG current (IhERG) (hERG potassium channel): increased | hERG maturation (hERG): promoted hERG maturation

Reference: PMC9301601 (Frontiers in Pharmacology, 2022)
